The values below come from patent US8846947B2, “Benzimidazoles and related analogs as sirtuin modulators” (GlaxoSmithKline LLC, priority 2008, dated 2014).

This assay deals with T1, SIRT1 (Homo sapiens, UniProt Q96EB6).
T1 sequence (Q96EB6 1-747): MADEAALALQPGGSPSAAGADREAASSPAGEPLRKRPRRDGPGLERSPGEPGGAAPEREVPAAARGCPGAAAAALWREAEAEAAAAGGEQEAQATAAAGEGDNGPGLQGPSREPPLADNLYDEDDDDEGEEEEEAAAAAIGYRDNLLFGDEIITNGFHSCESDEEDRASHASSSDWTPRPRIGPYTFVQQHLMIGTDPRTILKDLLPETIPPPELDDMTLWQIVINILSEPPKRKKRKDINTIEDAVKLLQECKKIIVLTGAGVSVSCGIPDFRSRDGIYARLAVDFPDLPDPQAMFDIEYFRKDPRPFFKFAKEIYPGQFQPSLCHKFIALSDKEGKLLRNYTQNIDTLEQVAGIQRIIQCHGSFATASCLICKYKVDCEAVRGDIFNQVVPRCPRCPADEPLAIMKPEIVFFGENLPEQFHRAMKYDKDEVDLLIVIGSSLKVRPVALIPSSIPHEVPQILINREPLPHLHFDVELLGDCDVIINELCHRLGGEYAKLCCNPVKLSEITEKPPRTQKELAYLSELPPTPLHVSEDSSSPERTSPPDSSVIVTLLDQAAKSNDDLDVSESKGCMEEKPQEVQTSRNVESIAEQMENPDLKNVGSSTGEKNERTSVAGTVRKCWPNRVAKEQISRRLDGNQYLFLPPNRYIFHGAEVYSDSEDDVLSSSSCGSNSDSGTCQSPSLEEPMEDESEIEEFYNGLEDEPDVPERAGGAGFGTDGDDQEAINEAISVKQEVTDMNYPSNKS
As to the kind of experiment: Mass spectrometry based SIRT1 deacetylase activation assay (acetylated p53-derived peptide substrate). It is filed as biochemical. As to conditions: 0.5 μM peptide substrate, 120 μM βNAD+, 10 nM SIRT1, 25 minutes at 25° C.
For `COc1cc(C(=O)Nc2nccs2)c2nc(-c3ccccc3C(F)(F)F)[nH]c2c1` [Compound 634], the EC1.5 result was “A (EC1.5<1.0 uM)” and the “Fold Act. (percent maximum fold activation)” value is recorded as “A (Fold activation >200%)”.

Turning to `COc1cc(C(=O)Nc2nccs2)c2nc(-c3ccc(Cl)cc3C(F)(F)F)[nH]c2c1` [Compound 635], the EC1.5 entry is given as “A (EC1.5<1.0 uM)” and the “Fold Act. (percent maximum fold activation)” value is listed as “A (Fold activation >200%)”.

As for `O=C(Nc1ccccn1)c1cncc2[nH]c(-c3ccccc3C(F)(F)F)nc12` [Compound 636], the EC1.5 entry is recorded as “A (EC1.5<1.0 uM)” and the “Fold Act. (percent maximum fold activation)” value is “A (Fold activation >200%)”.

`O=C(Nc1cccnc1)c1cncc2[nH]c(-c3ccccc3C(F)(F)F)nc12` [Compound 637]: the EC1.5 result is reported as “A (EC1.5<1.0 uM)” and the “Fold Act. (percent maximum fold activation)” value was “A (Fold activation >200%)”.

Regarding `O=C(Nc1cccnn1)c1cncc2[nH]c(-c3ccccc3C(F)(F)F)nc12` [Compound 638], the EC1.5 entry was “A (EC1.5<1.0 uM)” and the “Fold Act. (percent maximum fold activation)” value was “A (Fold activation >200%)”.

As to `Cc1cnc(NC(=O)c2cncc3[nH]c(-c4ccccc4C(F)(F)F)nc23)s1` [Compound 639], the EC1.5 result is listed as “A (EC1.5<1.0 uM)” and the “Fold Act. (percent maximum fold activation)” value is given as “A (Fold activation >200%)”.

Turning to `O=C(Nc1nccs1)c1cc(N2CCOCC2)cc2[nH]c(-c3ccc(Cl)cc3C(F)(F)F)nc12` [Compound 640], the EC1.5 entry was “A (EC1.5<1.0 uM)” and the “Fold Act. (percent maximum fold activation)” value is on record as “A (Fold activation >200%)”.

`O=C(Nc1ccccn1)c1cc(N2CCOCC2)cc2[nH]c(-c3ccc(Cl)cc3C(F)(F)F)nc12` [Compound 641]: the EC1.5 result is listed as “A (EC1.5<1.0 uM)” and the “Fold Act. (percent maximum fold activation)” value is “A (Fold activation >200%)”.

In the case of `O=C(Nc1cccnc1)c1cc(N2CCOCC2)cc2[nH]c(-c3ccc(Cl)cc3C(F)(F)F)nc12` [Compound 642], the EC1.5 entry is “A (EC1.5<1.0 uM)” and the “Fold Act. (percent maximum fold activation)” value is listed as “A (Fold activation >200%)”.

For the molecule `O=C(Nc1cccnn1)c1cc(N2CCOCC2)cc2[nH]c(-c3ccc(Cl)cc3C(F)(F)F)nc12` [Compound 643], the EC1.5 entry is recorded as “A (EC1.5<1.0 uM)” and the “Fold Act. (percent maximum fold activation)” value is “A (Fold activation >200%)”.

For the molecule `O=C(Nc1nccs1)c1cc(N2CCOCC2)cc2[nH]c(-c3cc(F)ccc3C(F)(F)F)nc12` [Compound 644], the EC1.5 result is “A (EC1.5<1.0 uM)” and the “Fold Act. (percent maximum fold activation)” value was “A (Fold activation >200%)”.

As for `O=C(Nc1ccccn1)c1cc(N2CCOCC2)cc2[nH]c(-c3cc(F)ccc3C(F)(F)F)nc12` [Compound 645], the EC1.5 result is “A (EC1.5<1.0 uM)” and the “Fold Act. (percent maximum fold activation)” value was “A (Fold activation >200%)”.

On to `O=C(Nc1cccnc1)c1cc(N2CCOCC2)cc2[nH]c(-c3cc(F)ccc3C(F)(F)F)nc12` [Compound 646], for which the EC1.5 entry was “A (EC1.5<1.0 uM)” and the “Fold Act. (percent maximum fold activation)” value was “A (Fold activation >200%)”.

In the case of `O=C(Nc1cccnn1)c1cc(N2CCOCC2)cc2[nH]c(-c3cc(F)ccc3C(F)(F)F)nc12` [Compound 647], the EC1.5 entry is on record as “A (EC1.5<1.0 uM)” and the “Fold Act. (percent maximum fold activation)” value was “A (Fold activation >200%)”.

Take `O=C(Nc1nccs1)c1cncc2[nH]c(-c3ccc(Cl)cc3C(F)(F)F)nc12` [Compound 648]: the EC1.5 entry was “A (EC1.5<1.0 uM)” and the “Fold Act. (percent maximum fold activation)” value is reported as “A (Fold activation >200%)”.

For the molecule `O=C(Nc1ccccn1)c1cncc2[nH]c(-c3ccc(Cl)cc3C(F)(F)F)nc12` [Compound 649], the EC1.5 entry is “A (EC1.5<1.0 uM)” and the “Fold Act. (percent maximum fold activation)” value is recorded as “A (Fold activation >200%)”.

Consider `O=C(Nc1cccnc1)c1cncc2[nH]c(-c3ccc(Cl)cc3C(F)(F)F)nc12` [Compound 650], for which the EC1.5 result is listed as “A (EC1.5<1.0 uM)” and the “Fold Act. (percent maximum fold activation)” value is recorded as “A (Fold activation >200%)”.

Take `O=C(Nc1cccnn1)c1cncc2[nH]c(-c3ccc(Cl)cc3C(F)(F)F)nc12` [Compound 651]: the EC1.5 result was “A (EC1.5<1.0 uM)” and the “Fold Act. (percent maximum fold activation)” value was “A (Fold activation >200%)”.

Take `Cc1cnc(NC(=O)c2cncc3[nH]c(-c4ccc(Cl)cc4C(F)(F)F)nc23)s1` [Compound 652]: the EC1.5 entry is on record as “A (EC1.5<1.0 uM)” and the “Fold Act. (percent maximum fold activation)” value was “A (Fold activation >200%)”.

As for `O=C(Nc1nccs1)c1cncc2[nH]c(-c3cc(F)ccc3C(F)(F)F)nc12` [Compound 653], the EC1.5 entry was “B (EC1.5 1-25 uM)” and the “Fold Act. (percent maximum fold activation)” value is on record as “A (Fold activation >200%)”.

As to `O=C(Nc1ccccn1)c1cncc2[nH]c(-c3cc(F)ccc3C(F)(F)F)nc12` [Compound 654], the EC1.5 entry is “B (EC1.5 1-25 uM)” and the “Fold Act. (percent maximum fold activation)” value is on record as “A (Fold activation >200%)”.

Regarding `O=C(Nc1cccnc1)c1cncc2[nH]c(-c3cc(F)ccc3C(F)(F)F)nc12` [Compound 655], the EC1.5 entry was “A (EC1.5<1.0 uM)” and the “Fold Act. (percent maximum fold activation)” value is on record as “A (Fold activation >200%)”.

For `O=C(Nc1cccnn1)c1cncc2[nH]c(-c3cc(F)ccc3C(F)(F)F)nc12` [Compound 656], the EC1.5 entry is given as “A (EC1.5<1.0 uM)” and the “Fold Act. (percent maximum fold activation)” value is on record as “A (Fold activation >200%)”.

For the molecule `Cc1cnc(NC(=O)c2cncc3[nH]c(-c4cc(F)ccc4C(F)(F)F)nc23)s1` [Compound 657], the EC1.5 entry is recorded as “A (EC1.5<1.0 uM)” and the “Fold Act. (percent maximum fold activation)” value is given as “A (Fold activation >200%)”.

With `CS(=O)(=O)c1ccc(F)cc1-c1nc2c(C(=O)Nc3ccccn3)cccc2[nH]1` [Compound 658], the EC1.5 result is recorded as “A (EC1.5<1.0 uM)” and the “Fold Act. (percent maximum fold activation)” value is “A (Fold activation >200%)”.

In the case of `CS(=O)(=O)c1ccc(F)cc1-c1nc2c(C(=O)Nc3cccnc3)cccc2[nH]1` [Compound 659], the EC1.5 entry was “B (EC1.5 1-25 uM)” and the “Fold Act. (percent maximum fold activation)” value is recorded as “A (Fold activation >200%)”.

Take `O=C(Nc1cccc(OC2CCNC2)c1)c1cccc2[nH]c(-c3ccc(F)cc3C(F)(F)F)nc12` (stereo not shown) [Compound 660]: the EC1.5 entry was “A (EC1.5<1.0 uM)” and the “Fold Act. (percent maximum fold activation)” value is “A (Fold activation >200%)”.

Turning to `O=C(Nc1cccc(OC2CCNCC2)c1)c1cccc2[nH]c(-c3ccc(F)cc3C(F)(F)F)nc12` [Compound 661], the EC1.5 entry was “A (EC1.5<1.0 uM)” and the “Fold Act. (percent maximum fold activation)” value is “A (Fold activation >200%)”.

With `C[C@@H]1CN(c2ccc(C(F)(F)F)c(-c3nc4c(C(=O)Nc5nccs5)cccc4[nH]3)c2)C[C@H](C)O1` [Compound 662], the EC1.5 entry is “B (EC1.5 1-25 uM)” and the “Fold Act. (percent maximum fold activation)” value is “A (Fold activation >200%)”.

For the molecule `C[C@@H]1CN(c2ccc(C(F)(F)F)c(-c3nc4c(C(=O)Nc5ccccn5)cccc4[nH]3)c2)C[C@H](C)O1` [Compound 663], the EC1.5 entry was “C (EC1.5 >25 uM)” and the “Fold Act. (percent maximum fold activation)” value is “B (Fold Activation <200%)”.

As for `O=C(Nc1nccs1)c1cccc2[nH]c(-c3cc(N4CCCC4)ccc3C(F)(F)F)nc12` [Compound 664], the EC1.5 entry is listed as “C (EC1.5 >25 uM)” and the “Fold Act. (percent maximum fold activation)” value is “B (Fold Activation <200%)”.

For the molecule `O=C(Nc1nccs1)c1cccc2[nH]c(-c3cc(N4CC[C@H](F)C4)ccc3C(F)(F)F)nc12` [Compound 665], the EC1.5 result is listed as “A (EC1.5<1.0 uM)” and the “Fold Act. (percent maximum fold activation)” value is given as “A (Fold activation >200%)”.

As for `O=C(Nc1ccccn1)c1cccc2[nH]c(-c3cc(N4CC[C@H](F)C4)ccc3C(F)(F)F)nc12` [Compound 666], the EC1.5 result is on record as “B (EC1.5 1-25 uM)” and the “Fold Act. (percent maximum fold activation)” value is “B (Fold Activation <200%)”.

Consider `O=C(Nc1nccs1)c1cccc2[nH]c(-c3cc(N4CC[C@@H](F)C4)ccc3C(F)(F)F)nc12` [Compound 667], for which the EC1.5 entry was “B (EC1.5 1-25 uM)” and the “Fold Act. (percent maximum fold activation)” value is on record as “A (Fold activation >200%)”.

On to `O=C(Nc1ccccn1)c1cccc2[nH]c(-c3cc(N4CC[C@@H](F)C4)ccc3C(F)(F)F)nc12` [Compound 668], for which the EC1.5 entry is reported as “A (EC1.5<1.0 uM)” and the “Fold Act. (percent maximum fold activation)” value is on record as “B (Fold Activation <200%)”.

As to `FC(F)(F)c1cc(Cl)ccc1-c1nc2c(NCc3cccnc3)cccc2[nH]1` [Compound 669], the EC1.5 result was “C (EC1.5 >25 uM)” and the “Fold Act. (percent maximum fold activation)” value is given as “B (Fold Activation <200%)”.

Regarding `Fc1ccc(C(F)(F)F)c(-c2nc3c(NCc4cccnc4)cccc3[nH]2)c1` [Compound 670], the EC1.5 entry is listed as “C (EC1.5 >25 uM)” and the “Fold Act. (percent maximum fold activation)” value is “B (Fold Activation <200%)”.

Take `c1ccc(-n2nccc2-c2nc3c(NCc4cccnc4)cccc3[nH]2)cc1` [Compound 671]: the EC1.5 result is listed as “C (EC1.5 >25 uM)” and the “Fold Act. (percent maximum fold activation)” value was “B (Fold Activation <200%)”.
